Reference: US20260053861A1, “CELL COMPOSITIONS AND METHODS OF USING THE SAME” (THE REGENTS OF THE UNIVERSITY OF CALIFORNIA, priority 2022, published 2026)
Counter-ions that a name gives are not always drawn.

Each compound was assayed on hPSC-SCs. Details: not given.

SMILES	z.score.t
COc1ccc2c(c1)[C@]13CCCC[C@@H]1[C@H](C2)N(C)CC3	1.28
COc1cc2c(cc1OC)C(C)NCC2.Cl (stereo not shown)	0.3024
CN1CCc2cccc3c2[C@H]1Cc1ccc(O)c(O)c1-3.CN1CCc2cccc3c2[C@H]1Cc1ccc(O)c(O)c1-3.Cl.Cl.O	−1.904
CN(N=O)C(=O)N[C@H]1C(O)O[C@H](CO)[C@@H](O)[C@@H]1O (mixture of isomers) [Streptozotocin]	0.03421
Cl.NCC(O)c1ccc(O)cc1 (racemic) [(+, −)-Octopamine hydrochloride]	0.6574
CNCC(O)c1ccc(O)cc1 (racemic) [(+, −)-Synephrine]	−0.2329
O=C(O)C1CCCNC1 (racemic) [(ñ)-Nipecotic acid]	−0.7376
NCC(CC(=O)O)c1ccc(Cl)cc1 (racemic) [Baclofen (R,S)]	1.088
Nc1c2c(nc3ccccc13)CCCC2O.O=C(O)/C=C\C(=O)O (racemic) [Hydroxytacrine maleate (R,S)]	0.713
COc1ccc(CC2c3cc(OC)c(OC)cc3CCN2C)cc1OC (racemic) [Laudanosine (R,S)]	−0.3319
CC(=O)NC1CCSC1=O (racemic) [N-Acetyl-DL-homocysteine Thiolactone]	0.0116
CN1CCC2(C)c3cc(O)ccc3N(C)C12.O=C(O)/C=C/C(=O)O (single isomer, unassigned; (-)) [(−)-Eseroline fumarate salt]	−1.336
CC(=C(CCO)SSCC1CCCO1)N(C=O)Cc1cnc(C)nc1N (stereo in doubt) [Fursultiamine Hydrochloride]	1.483
C[C@]12CC[C@@H](O)C[C@H]1CC[C@@H]1[C@@H]2CC[C@]2(C)C(=O)CC[C@@H]12 [3-alpha-Hydroxy-5-beta-androstan-17-one]	−0.1014
CN1C2CC(=O)CC1C(O)C2 (stereo not shown) [6-Hydroxytropinone]	−0.3867
COc1ccc2c(c1OC)CN1CCc3cc4c(cc3C1C2)OCO4 (stereo not shown) [(d,l)-Tetrahydroberberine]	2.041
CCN1C[C@]2(COC)[C@H](O)C[C@H](OC)[C@@]34[C@@H]5C[C@@]6(O)[C@H](OC(=O)c7ccccc7)[C@@H]5[C@@](OC(C)=O)([C@@H]([C@H](OC)[C@H]23)[C@@H]14)[C@@H](O)[C@@H]6OC [Aconitine]	−0.2486
Nc1ncnc2c1ncn2[C@@H]1O[C@H](COP(=O)(O)O)[C@@H](O)[C@H]1O.O [Adenosine 5′-monophosphate monohydrate]	1.049
C[C@]12CCC(=O)C=C1CC[C@@H]1[C@@H]2C(=O)C[C@]2(C)C(=O)CC[C@@H]12 [Adrenosterone]	1.101

Same assay, conditions: HTS viability of hPSC-SCs in the presence of 30 mM glucose; Prestwick library; Table S4

SMILES	z.score.t
Cc1ccc(Cl)c(Nc2ccccc2C(=O)O)c1Cl	−1.427
CC(C)NCC(O)c1cc(O)cc(O)c1.CC(C)NCC(O)c1cc(O)cc(O)c1.O=S(=O)(O)O (stereo not shown)	0.4451
O=C(O)Cc1cc(I)c(Oc2ccc(O)c(I)c2)c(I)c1	0.4486
CN(Cc1cnc2nc(N)nc(N)c2n1)c1ccc(C(=O)N[C@@H](CCC(=O)O)C(=O)O)cc1 (racemic) [Amethopterin (R,S)]	0.3845
CC(=O)NC(CC(=O)O)C(=O)O (racemic) [Aspartic acid, N-acetyl (R,S)]	0.006455
O.Oc1cc(O)c2c(c1)OC(c1ccc(O)c(O)c1)C(O)C2 (racemic) [Catechin-(+, −) hydrate]	0.2361
OCC(O)CN1CCN(c2ccccc2)CC1 (racemic) [Dropropizine (R,S)]	0.7162
COCCc1ccc(OCC(O)CNC(C)C)cc1.COCCc1ccc(OCC(O)CNC(C)C)cc1.O=C(O)C(O)C(O)C(=O)O (racemic) [Metoprolol-(+, −) (+)-tartrate salt]	1.223
CC(C)NCC(O)c1ccc(O)c(O)c1.Cl (single isomer, unassigned; (-)) [(−)-Isoproterenol hydrochloride]	−0.1043
CC(=O)NC1[C@@H](O)OC(CO)[C@@H](O)[C@H]1O[C@H](C)C(=O)O (stereo in doubt) [Muramic acid, N-acetyl]	1.616
Nc1ccccc1S(N)(=O)=O [2-Aminobenzenesulfonamide]	1.43
Clc1cnccn1 [2-Chloropyrazine]	0.2112
CC(=O)Nc1cc2ccccc2oc1=O [3-Acetamidocoumarin]	−1.551
CC(=O)c1cc2ccccc2oc1=O [3-Acetylcoumarin]	−0.7757
c1coc(CNc2ncnc3nc[nH]c23)c1 [6-Furfurylaminopurine]	−0.7183
CC(C)(C)NC[C@@H](O)COc1cccc2c1CCCC2=O.Cl [(+) -Levobunolol hydrochloride]	1.281
CC(C)NC[C@@H](O)c1ccc(O)c(O)c1.O=C(O)C(O)C(O)C(=O)O [(+)-Isoproterenol (+)-bitartrate salt]	0.1019
COc1ccc2cc([C@@H](C)C(=O)[O-])ccc2c1.[Na+] [(R) -Naproxen sodium salt]	−0.3895

SMILES	z.score.t
CC(C)NC[C@@H](O)COc1ccc(CC(N)=O)cc1 [(R)-(+)-Atenolol]	−0.9395
CC(C)NC[C@@H](O)COc1cccc2ccccc12.Cl [(R)-Propranolol hydrochloride]	−0.04682
N[C@H]1CONC1=O [(S)-(−)-Cycloserine]	−0.3729
CC(C)(C)NC[C@H](O)COc1cccc2c1CCCC2=O.Cl [(−) -Levobunolol hydrochloride]	0.8283
C=C[C@H]1CN2CC[C@H]1C[C@H]2[C@H](O)c1ccnc2ccccc12 [(−)-Cinchonidine]	1.595
COc1ccc(-c2cc(=O)c3c(O)cc(O)cc3o2)cc1 [Acacetin]	−0.03362
CCCC(=O)Nc1ccc(OCC(O)CNC(C)C)c(C(C)=O)c1 (stereo not shown) [Acebutolol hydrochloride]	0.3206
O=C(O)COC(=O)Cc1ccccc1Nc1c(Cl)cccc1Cl [Aceclofenac]	0.08508
COc1ccc2c(c1)c(CC(=O)OCC(=O)O)c(C)n2C(=O)c1ccc(Cl)cc1 [Acemetacin]	−1.873
CC(=O)CC(c1ccc([N+](=O)[O-])cc1)c1c(O)c2ccccc2oc1=O (stereo not shown) [Acenocoumarol]	−0.2425
CC(=O)Nc1ccc(O)cc1 [Acetaminophen]	−0.3023
CC(=O)Nc1nnc(S(N)(=O)=O)s1 [Acetazolamide]	0.8639
CC(=O)c1ccc(S(=O)(=O)NC(=O)NC2CCCCC2)cc1 [Acetohexamide]	0.5856
CC(=O)c1ccc2c(c1)N(CCCN(C)C)c1ccccc1S2.O=C(O)/C=C\C(=O)O [Acetopromazine maleate salt]	0.1979
CC(=O)Oc1ccccc1C(=O)Oc1ccccc1C(=O)O [Acetylsalicylsalicylic acid]	0.3922
Nc1nc2c(ncn2COCCO)c(=O)[nH]1 [Acyclovir]	0.2916
NC12CC3CC(CC(C3)C1)C2.NC12CC3CC(CC(C3)C1)C2.O=C(O)/C=C/C(=O)O [Adamantamine fumarate]	−0.4942
CCN(CC)CCOC(=O)C(c1ccccc1)c1ccccc1 [Adiphenine hydrochloride]	−0.765
